Reference: patent US20220186240A1, “FLAVONE 7-O-METHYLTRANSFERASE GENE AND USE FOR SAME” (Suntory Holdings Limited, priority 2019, published 2022)

Experiments:
[1] = tested on: DN134067 (CcFn-7OMT, flavone 7-O-methyltransferase); assay: Enzyme activity measurement with crude protein solution extract from E. coli expressing DN134067, HPLC of reaction solution; assay type: biochemical, oboushibana (Commelina communis var. hortensis); details: for peak detected in the enzyme reaction solution / Enzyme reaction synthesis product: compound as substrate; for peak detected in the enzyme reaction solution: HPLC; for Enzyme reaction synthesis product: 30° C., SAM, ND = no product peak
Source text: With DN134067 as a candidate protein having activity of transferring a methyl group to the hydroxyl group at position 7 of flavone C-glycoside, and using pET15b (Novagen), an E. coli expression vector containing the full-length DN134067 (pET15b-DN134067) was constructed according to the manufacturer's recommended protocol.
Plasmid pET15b-DN134067 was introduced into E. coli BL21 using One Shot BL21(DE3) (Invitrogen), according to the manufacturer's recommended protocol, to obtain E. coli transformants. The E. coli were cultured using an Overnight Express Autoinduction System 1 (Novagen), according to the manufacturer's recommended protocol. The E. coli transformants were cultured at 37° C. (approximately 4 hours) with 2 ml of prepared culture solution, to an OD600 value of 0.5. The E. coli solution was added as a preculturing solution to 50 ml of culture solution, and main culturing was carried out for two nights at 16° C.
The E. coli solution cultured for two nights was centrifuged (3000 rpm, 4° C., 15 minutes), and the collected cells were suspended in sonic buffer (composition: 40 mM KPB (pH7.5), 1 mM dithiothreitol, 50 μM amidinophenylmethanesulfonyl fluoride hydrochloride, […], 2 mM MgCl2, 1 μM S-adenosylmethionine (SAM)). A 5 ml portion of sonic buffer was added for each 1 g of E. coli. The suspended E. coli cells were crushed by ultrasonic treatment and then centrifuged (15,000 rpm, 4° C., 10 minutes), and the supernatant was recovered. The supernatant was used as a crude protein solution extract from E. coli expressing DN134067. An Avanti HP-26XP (rotor: JA-2) (Beckman Coulter) was used for the centrifugation.
After mixing 8 μl of 1 mM isovitexin (dissolved in 50% aqueous acetonitrile containing 0.1% TFA), 20 μl of 10 mM SAM, 20 μl of 10 mM MgCl2 and 10 μl of 1 M KPB (pH 7.5) and adjusting to 58 μl with water, the mixture was kept at 30° C. for 10 minutes, and then 2 μl of the crude protein solution extract from DN134067-expressing E. coli was added and enzyme reaction was carried out (30 minutes at 30° C.). Next, 100 μl of stop buffer (aqueous 90% acetonitrile solution containing 0.1% TFA) was added to stop the enzyme reaction, and the enzyme reaction solution was analyzed by high-performance liquid chromatography (Prominence by Shimadzu Corp.). Detection was at 330 nm using a Shimadzu PDA SPD-M20A as the detector. The column used was a Shim-Pack ODS 150 mm*4.6 mm (Shimadzu Corp.). Elution was performed using solution A (0.1% TFA aqueous solution) and solution B (aqueous 90% acetonitrile solution containing 0.1% TFA). The elution was with a 20-minute linear concentration gradient from a 9:1 mixture to a 8:2 mixture, a 15-minute linear concentration gradient from a 8:2 mixture to a 2:8 mixture and a 5-minute linear concentration gradient from a 2:8 mixture to a 0:10 mixture, followed by elution with a 0:10 mixture for 1 minute. The flow rate was 0.6 ml/min. As a control, the same experiment was carried out using a crude protein solution extract from E. coli in which pET15b vector without the insert had been introduced.
When enzyme reaction was conducted using an anthocyanin (delphinidin 3-glycoside, petunidin 3-glycoside or delphinidin 3,5-diglycoside) as the substrate, the enzyme reaction conditions were 30° C., 15 minutes, and an aqueous 90% acetonitrile solution containing 0.1% TFA and 0.24 N hydrochloric acid was used as the stop buffer. A Shimadzu PDA SPD-M20A detector was used for detection at 520 nm during analysis of the enzyme reaction solution by high-performance liquid chromatography (Prominence (Shimadzu Corp.)). The column used was a Shodex RSpak DE-413 L (Shodex). Elution was performed using solution A (0.1% TFA aqueous solution) and solution B (aqueous 90% acetonitrile solution containing 0.1% TFA). Elution was performed with a 15-minute linear concentration gradient from an 8:2 mixture to a 0:10 mixture, and subsequent elution for 5 minutes with a 0:10 mixture. […]

[2] = Simulation of flavone C-glycoside (isovitexin) copigment effect with anthocyanin, absorption spectra; assay type: physicochemical; details: for Absorption maximum of anthocyanin solution with addition of flavone C-glycoside (λmax): pH 4.5, anthocyanin 0.5 mM
Description: An anthocyanin and flavone C-glycoside were prepared to simulate the copigment effect of flavone C-glycoside on anthocyanin. The malvin (malvidin 3,5-diglycoside) and isovitexin (apigenin 6-C-glycoside) used for the experiment were purchased from Funakoshi Corp.
The flavone C-glycoside (isovitexin) was added to the anthocyanin (malvin) at 0, 2 and 4-equivalent molar concentrations in a buffering solution at pH 4.5, and the absorption spectra were measured. The anthocyanin concentration was 0.5 mM.
Addition of the flavone C-glycoside increased the absorbance of the anthocyanin solution, shifting the absorption maximum (λmax) toward the long wavelength end with increasing addition of flavone C-glycoside.

[3] = Simulation of flavone C-glycoside (isoorientin, swertisin) copigment effect with malvin, absorption spectra; assay type: physicochemical; details: for Absorption maximum of malvin solution with addition of flavone C-glycoside (λmax): flavone C-glycoside at 10-equivalent molar concentration, pH 5.0, malvin 0.5 mM
Description: An anthocyanin (malvin) and flavone C-glycoside were prepared to simulate the copigment effect of the flavone C-glycoside on malvin. The malvin (malvidin 3,5-diglycoside) and flavone C-glycosides (isoorientin, swertisin) used in this experiment were purchased from Nacalai Tesque, Inc.
Each flavone C-glycoside (isoorientin or swertisin) was added to the malvin at 10-equivalent molar concentration in a buffering solution at pH 5.0, and the absorption spectra were measured. The malvin concentration was 0.5 mM.
Addition of the flavone C-glycoside increased the absorbance of the malvin solution, shifting the absorption maximum (λmax) toward the long wavelength end. The absorption maximum was shifted further toward the long wavelength end with addition of swertisin than with isoorientin.

Delphinidin 3-glycoside
peak detected in the enzyme reaction solution [1]: no peak was detected in the enzyme reaction solution other than for the substrate

COc1cc(-c2[o+]c3cc(O)cc(O[C@@H]4O[C@H](CO)[C@@H](O)[C@H](O)[C@H]4O)c3cc2O[C@@H]2O[C@H](CO)[C@@H](O)[C@H](O)[C@H]2O)cc(OC)c1O [Malvin, malvidin 3,5-diglycoside]
Absorption maximum of anthocyanin solution with addition of flavone C-glycoside (λmax) ([2]; 0 equivalent isovitexin): 531.8 nm
Absorption maximum of anthocyanin solution with addition of flavone C-glycoside (λmax) ([2]; 2 equivalents isovitexin): 566.4 nm
Absorption maximum of anthocyanin solution with addition of flavone C-glycoside (λmax) ([2]; 4 equivalents isovitexin): 573.0 nm
Absorption maximum of malvin solution (λmax) ([3]; malvin alone, pH 5.0, 0.5 mM): 529 nm

Delphinidin 3,5-diglycoside
peak detected in the enzyme reaction solution [1]: no peak was detected in the enzyme reaction solution other than for the substrate

Luteolin 4′-glycoside
peak detected in the enzyme reaction solution [1]: no peak was detected in the enzyme reaction solution other than for the substrate

COc1cc2oc(-c3ccc(O)cc3)cc(=O)c2c(O)c1[C@@H]1O[C@H](CO)[C@@H](O)[C@H](O)[C@H]1O [Swertisin, apigenin 7-methyl-6-C-glycoside]
copigment effect with malvin ([3]; compared with isoorientin, 10 equivalents, pH 5.0): higher copigment effect with malvin
Absorption maximum of malvin solution with addition of flavone C-glycoside (λmax) [3]: 579 nm

Petunidin 3-glycoside
peak detected in the enzyme reaction solution [1]: no peak was detected in the enzyme reaction solution other than for the substrate

O=c1cc(-c2ccc(O)c(O)c2)oc2cc(O)c([C@@H]3O[C@H](CO)[C@@H](O)[C@H](O)[C@H]3O)c(O)c12 [Isoorientin, luteolin 6-C-glycoside]
Enzyme reaction synthesis product [1]: Swertiajaponin
peak detected in the enzyme reaction solution [1]: a peak was detected for swertiajaponin
Absorption maximum of malvin solution with addition of flavone C-glycoside (λmax) [3]: 575 nm

O=c1cc(-c2ccc(O)cc2)oc2cc(O)cc(O)c12 [Apigenin]
peak detected in the enzyme reaction solution [1]: no peak was detected in the enzyme reaction solution other than for the substrate

Apigenin 4′-glycoside
peak detected in the enzyme reaction solution [1]: no peak was detected in the enzyme reaction solution other than for the substrate

O=c1cc(-c2ccc(O)cc2)oc2cc(O)c([C@@H]3O[C@H](CO)[C@@H](O)[C@H](O)[C@H]3O)c(O)c12 [Isovitexin, apigenin 6-C-glycoside]
Enzyme reaction synthesis product [1]: Swertisin
peak detected in the enzyme reaction solution [1]: a peak for swertisin
copigment effect with malvin ([2]; pH 4.5, malvin 0.5 mM): copigment effect of isovitexin is exhibited with malvin

isovitexin 4′-glycoside [Saponarin]
peak detected in the enzyme reaction solution [1]: no peak was detected in the enzyme reaction solution other than for the substrate

O=c1cc(-c2ccc(O)c(O)c2)oc2cc(O)cc(O)c12 [Luteolin]
peak detected in the enzyme reaction solution [1]: no peak was detected in the enzyme reaction solution other than for the substrate

B1: DN134067: oboushibana-derived flavone 7-O-methyltransferase (SEQ ID NO: 34/35), expressed in E. coli (protein)
chain: MEAQEDNAYMQALELQTGIDMNMTLRAAIELGILETIVGAGEGAKLAAGEISGHLPTANPEAPNMVDRMLRLLAAHNIVTCVVEGGVDGRPECKYGAAPVSKYFTGEGEMSLARKVLLATDMVTFQSWLHLKDSVINGGNAFHTAFNMSLFDKNKVDSRFNNVFNTSMKSVSLFAINKFINTYDGFSDIQVLVDVGGGIGTALYAITSKFPHIKGINFDLPQVISTAQTSYPEMEHVSGDMFASVPKGDAILLKHVLHNWEDESCLKILKTCWNSLPYKGKVIIVESVLPKAPGVSSASKYFTCLDVIMMAHFGAKLRTIEEFKELCNNAGFSSFNATYFHTYHCIMEFTK
modifications: Commelina communis var. hortensis
methyl group-transfer activity ([1]; substrate comparison): most powerful methyl group-transfer activity for isovitexin
